{"source": "patent US9718824B2", "about": "“Solid forms comprising 7-(6-(2-hydroxypropan-2-yl)pyridin-3-yl)-1-((trans)-4-methoxycyclohexyl)-3,4-dihydropyrazino[2,3-b]pyrazin-2(1H)-one, and a coformer, compositions and methods of use thereof” (Signal Pharmaceuticals, LLC, priority 2014, dated 2017)", "experiment": "Physical stability under accelerated ageing conditions, re-analysis by XRPD and digital imaging", "assay_type": "physicochemical", "conditions": "40° C. and 75% RH, 48 hours", "method": "AAC: Accelerated aging conditions (48 hours at 40° C. and 75% RH)\nPhysical stability of all samples was studied by exposing all solids to accelerated ageing conditions (40° C./75% RH for 48 hours) followed by re-analysis by XRPD and digital imaging. After exposure to accelerated ageing conditions, all solids were re-classified on the basis of their new XRPD patterns. The assignment of solid forms was primarily based on the XRPD analysis.\nSubsequently, all solids were placed in a climate chamber at 40° C. and 75% RH for […] and again analyzed by XRPD and digital imaging.\nCompound 1 free base was solid dosed in 1.8 mL scale experimental vials. The coformer was added at a ratio of 1:1.1 (Compound 1:coformer). The solvent and a stirring bar were added to the vials. […] After the solids were separated from the liquids, the solids were analyzed wet by XRPD and digital imaging. […] The solids obtained were then analyzed by XRPD and digital imaging. Subsequently, the solids were incubated in a climate chamber at 40° C. and 75% RH for 48 hours and again analyzed by XRPD and digital imaging.\nIn these experiments 4 coformers and 6 solvents were tested (see Table 10). […] All obtained solids were then analyzed by XRPD and digital imaging. Subsequently, the solids were placed in a climate chamber at 40° C. and 75% RH for 3 days after which they were analyzed by XRPD and digital imaging again. […]", "data": [{"smiles": "COC1CCC(N2C(=O)CNc3ncc(-c4ccc(C(C)(C)O)nc4)nc32)CC1.O=C(O)C=CC(=O)O", "note": "(stereo not shown) [Form 1]", "values": [{"measurement": "Physical stability at accelerated aging conditions (solid form by XRPD)", "result": "stable"}]}]}
